Data from patent publication US9244074B2 (University of Hawaii, priority 2011, dated 2016).
*1 amine or outer side, *2 acyl side, *3 side chain or, on linkers, in order; H or OH if unused. Where a SMILES comes first, the peptide text is derived from it. Bridges are numbered along the chain shown (N, C = ends). Roman numbers before positions name the chains, in order. [ ]: non-standard residue; d: D form. Actinocin(9to1) = Cc1c2oc3c(C)ccc(C(=O)[*:1])c3nc-2c(C(=O)[*:2])c(N)c1=O; NMeV = CN[C@H](C(=O)O)C(C)C; Sar = CNCC(=O)O

Columns and labels:
[1] = tested on: macrophages; assay: TNF-α secretion by macrophages given culture medium from exposed HM; type: cell-based, human; details: concentrated HM culture medium added to macrophages
Protocol: Expression levels of HMGB1 and its receptors RAGE, TLR2 and TLR4 in a panel of 8 MM cell lines and 8 distinct primary HM cultures were determined Primary human mesothelial cells (HM) were obtained from pleural effusions of eight different patients, pathologically diagnosed free of malignancy at the Queen's Medical Center, Honolulu, Hi. […] HM were cultured in Dulbecco's Modified Eagle Medium (DMEM) (Mediatech Inc., Manassas, Va.) containing 20% fetal bovine serum (FBS) (Gibco, Carlsbad, Calif.) and penicillin-streptomycin (100 units/ml penicillin G and 100 μg/ml streptomycin sulfate) (GIBCO), and were used between second and fifth passages. THP-1 human monocytes (ATCC, Manassas, Va.) were differentiated into macrophages by phorbol 12-myristate 13-acetate (TPA). The pleural malignant mesothelioma (MM) cell lines were established from surgically resected human MM specimens and used comparatively in our studies. REN cells were provided by Dr. Steven Albelda (University of Pennsylvania, Philadelphia, Pa.), while all other cell lines used in this study were provided by Dr. Harvey I. Pass (NYU School of Medicine, New York, N.Y.). MM cells were maintained in DMEM containing 10% FBS. All cells were cultured at 37° C. in a humidified atmosphere with 5% CO2 and grown to approximately 80-90% confluency. […]
Next, it was determined whether the release of HMGB1 was linked to an inflammatory response. […]

[2] = tested on: human mesothelial (HM) cells; assay: HMGB1 localization in HM cells by immunofluorescence staining; type: cell-based; details: 6 hrs exposure; H2O2 100 μM, actinomycin D 0.1 μM
Protocol: After fixation and permeabilization, cells were incubated with HMGB1 antibody (BD Bioscience Pharmingen) and a fluorescein-conjugated secondary antibody (Chemicon, Temecula). Nuclei were stained with DAPI.

SMILES | macrophage secretion of TNF-α induced by culture medium from HM exposed to the substance [1] | HMGB1 localization in HM cells [2]
Cc1c2oc3c(C)ccc(C(=O)N[C@@H]4C(=O)N[C@H](C(C)C)C(=O)N5CCC[C@H]5C(=O)N(C)CC(=O)N(C)[C@@H](C(C)C)C(=O)O[C@@H]4C)c3nc-2c(C(=O)N[C@@H]2C(=O)N[C@H](C(C)C)C(=O)N3CCC[C@H]3C(=O)N(C)CC(=O)N(C)[C@@H](C(C)C)C(=O)O[C@@H]2C)c(N)c1=O [actinomycin D] (I: T[dV]P[Sar][NMeV] / II: T[dV]P[Sar][NMeV]; ester I:1-I:C, II:1-II:C; linker I:N-II:N via Actinocin(9to1)) | did not induce TNF-α secretion | remained within the nucleus
OO [H2O2] | – | translocated from the nucleus into the cytosol
